# Test results from patent US7932270B2 (Cytokinetics, Inc., priority 2006, dated 2011).
# Target: T1, chicken gizzard smooth muscle myosin subfragment-1 chemically crosslinked to cardiac or skeletal actin (Gallus gallus, UniProt P10587)
# T1 construct: chicken gizzard smooth muscle myosin subfragment-1; from tissue; host or cells: chicken gizzard
# Test: Smooth muscle myosin ATPase dose response assay (pyruvate kinase/horseradish peroxidase/pyruvate oxidase-coupled, amplex red fluorescence)
# Format: biochemical
# Conditions: read-out: IC50 Arithmetic Mean
# Outline: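 Lead-optimization format: ATPase coupled via pyruvate kinase, pyruvate oxidase and peroxidase, pH 7.00 at 22° C, with 0.15 mM ATP, 100 mM KCl, 2 mM MgCl2, 2 mM phosphate and 0.1 mM amplex red (final). Crosslinked S1 titrated empirically for set hydrolysis rate; fluorescence (ex 480/em 615 nm) dose curves fit 4-parameter for IC50.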
# T1 sequence (P02607 2-151): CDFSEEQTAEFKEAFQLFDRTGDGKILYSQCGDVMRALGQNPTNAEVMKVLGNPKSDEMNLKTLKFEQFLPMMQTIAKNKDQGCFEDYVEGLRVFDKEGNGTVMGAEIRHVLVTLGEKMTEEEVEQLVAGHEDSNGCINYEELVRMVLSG
# T1 sequence (P10587 84-789): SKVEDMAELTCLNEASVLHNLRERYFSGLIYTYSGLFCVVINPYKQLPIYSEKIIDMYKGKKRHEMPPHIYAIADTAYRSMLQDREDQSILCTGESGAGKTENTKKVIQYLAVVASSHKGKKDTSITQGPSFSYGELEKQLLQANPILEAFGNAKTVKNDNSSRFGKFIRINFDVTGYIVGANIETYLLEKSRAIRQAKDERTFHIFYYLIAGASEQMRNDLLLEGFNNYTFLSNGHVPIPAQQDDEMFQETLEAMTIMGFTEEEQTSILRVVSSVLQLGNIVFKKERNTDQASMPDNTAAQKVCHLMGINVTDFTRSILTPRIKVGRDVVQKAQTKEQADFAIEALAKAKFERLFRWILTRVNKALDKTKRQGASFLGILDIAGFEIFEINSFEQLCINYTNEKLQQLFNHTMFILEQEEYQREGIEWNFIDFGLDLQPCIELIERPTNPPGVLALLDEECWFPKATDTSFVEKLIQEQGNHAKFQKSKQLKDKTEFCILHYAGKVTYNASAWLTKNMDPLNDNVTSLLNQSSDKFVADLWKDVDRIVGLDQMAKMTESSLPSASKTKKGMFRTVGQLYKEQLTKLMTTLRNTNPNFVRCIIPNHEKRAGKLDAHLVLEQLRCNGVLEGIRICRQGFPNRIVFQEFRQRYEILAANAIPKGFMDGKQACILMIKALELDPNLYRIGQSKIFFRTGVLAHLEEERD
row,IC50 [nM],Compound
1,105,C[C@@H](CNC(=O)CO)CNC(=O)c1cc(F)c(-c2cnn(C)c2)nc1NCCc1cccc(F)c1 [N-{(2R)-3-[(5-fluoro-2-{[2-(3-fluorophenyl)ethyl]amino}-6-(1-methylpyrazol-4-yl)(3-pyridyl))carbonylamino]-2-methylpropyl}-2-hydroxyacetamide]
2,40,Cn1cc(-c2nc(NCCc3cccc(F)c3)c(C(=O)NC[C@H]3CCN3C(=O)CCCN)cc2F)cn1 [N-{[(2R)-1-(4-aminobutanoyl)azetidin-2-yl]methyl}(5-fluoro-2-{[2-(3-fluorophenyl)ethyl]amino}-6-(1-methylpyrazol-4-yl)(3-pyridyl))carboxamide]
3,2310,C[C@H](CNC(=O)c1ccc(-c2ccccc2C#N)nc1NCCc1cccc(F)c1)NC(=O)CNC(=O)OC(C)(C)C
4,590,N#Cc1ccccc1-c1ccc(C(=O)NC(CCCN)C(N)=O)c(NCCc2cccc(F)c2)n1 (stereo not drawn) [N-(4-amino-1-carbamoylbutyl)(6-(2-cyanophenyl)-2-{[2-(3-fluorophenyl)ethyl]amino}(3-pyridyl))carboxamide]
5,40,N#Cc1ccccc1-c1ccc(C(=O)NC[C@H]2CCN2C(=O)CO)c(NCCc2cccc(F)c2)n1 [N-{[(2R)-1-(2-hydroxyacetyl)azetidin-2-yl]methyl}(6-(2-cyanophenyl)-2-{[2-(3-fluorophenyl)ethyl]amino}(3-pyridyl))carboxamide]
6,30300,O=C(NCc1cccnc1)c1ccc(-c2ccccc2)nc1NCCCn1ccnc1 [{2-[(3-imidazolylpropyl)amino]-6-phenyl(3-pyridyl)}-N-(3-pyridylmethyl)carboxamide]
7,8750,O=Cc1ccccc1-c1ccc(C(=O)NCc2cccnc2)c(NCCc2ccccn2)n1 [{6-(2-formylphenyl)-2-[(2-(2-pyridyl)ethyl)amino](3-pyridyl)}-N-(3-pyridylmethyl)carboxamide]
8,462,NCCCn1nccc1CNC(=O)c1ccc(-c2cc[nH]n2)nc1NCCc1cccc(F)c1 [N-{[1-(3-aminopropyl)pyrazol-5-yl]methyl}(2-{[2-(3-fluorophenyl)ethyl]amino}-6-pyrazol-3-yl(3-pyridyl))carboxamide]
9,185,N#Cc1ccccc1-c1ccc(C(=O)NCCCC(N)=O)c(NCCc2cccc(F)c2)n1 [N-(3-carbamoylpropyl)(6-(2-cyanophenyl)-2-{[2-(3-fluorophenyl)ethyl]amino}(3-pyridyl))carboxamide]
10,17,N#Cc1ccccc1-c1ccc(C(=O)NCc2cccnc2NCCCN)c(NCCc2cccc(F)c2)n1 [N-({2-[(3-aminopropyl)amino](3-pyridyl)}methyl)(6-(2-cyanophenyl)-2-{[2-(3-fluorophenyl)ethyl]amino}(3-pyridyl))carboxamide]
11,90,NCCC(=O)N1CCC[C@@H]1CNC(=O)c1cc(F)c(-c2cn[nH]c2)nc1NCCc1cccc(F)c1 [N-{[(2R)-1-(3-aminopropanoyl)pyrrolidin-2-yl]methyl}(5-fluoro-2-{[2-(3-fluorophenyl)ethyl]amino}-6-pyrazol-4-yl(3-pyridyl))carboxamide]
12,6,N#Cc1ccccc1-c1ccc(C(=O)NCc2cccnc2CN)c(NCCc2cccc(F)c2)n1 [N-{[2-(aminomethyl)(3-pyridyl)]methyl}(6-(2-cyanophenyl)-2-{[2-(3-fluorophenyl)ethyl]amino}(3-pyridyl))carboxamide]
13,11000,O=C(NCC1CCCO1)c1ccc(-c2ccccc2)nc1NCCc1ccccn1 (stereo not drawn) [N-(oxolan-2-ylmethyl){6-phenyl-2-[(2-(2-pyridyl)ethyl)amino](3-pyridyl)}carboxamide]
14,441,CC(C)[C@H](CNC(=O)c1ccc(-c2ccccc2C#N)nc1NCCc1cccc(F)c1)NC(=O)CO [N-((1R)-1-{[(6-(2-cyanophenyl)-2-{[2-(3-fluorophenyl)ethyl]amino}(3-pyridyl))carbonylamino]methyl}-2-methylpropyl)-2-hydroxyacetamide]
15,4640,C[C@H](CNC(=O)c1cc(F)c(-c2cn[nH]c2)nc1NCCn1cccn1)NC(=O)CN
16,2390,CN1CCN(C(=O)CCN)[C@@H](CNC(=O)c2ccc(-c3ccccc3C#N)nc2NCCc2cccc(F)c2)C1 [N-{[(2S)-1-(3-aminopropanoyl)-4-methylpiperazin-2-yl]methyl}(6-(2-cyanophenyl)-2-{[2-(3-fluorophenyl)ethyl]amino}(3-pyridyl))carboxamide]
17,866,CNC(=O)NCCNC(=O)c1ccc(-c2ccccc2C#N)nc1NCCc1cccc(F)c1 [(6-(2-cyanophenyl)-2-{[2-(3-fluorophenyl)ethyl]amino}(3-pyridyl))-N-{2-[(methylamino)carbonylamino]ethyl}carboxamide]
18,136,Cn1cc(-c2ccc(C(=O)NCc3cccc(CN)n3)c(NCCc3cccc(F)c3)n2)cn1 [N-{[6-(aminomethyl)(2-pyridyl)]methyl}(2-{[2-(3-fluorophenyl)ethyl]amino}-6-(1-methylpyrazol-4-yl)(3-pyridyl))carboxamide]
19,138,"O=C(NCc1cccnc1)c1ccc(-c2ccc(F)cc2)nc1NCCc1cc(F)cc(F)c1 [(2-{[2-(3,5-difluorophenyl)ethyl]amino}-6-(4-fluorophenyl)(3-pyridyl))-N-(3-pyridylmethyl)carboxamide]"
20,273,N#Cc1ccccc1-c1ccc(C(=O)NCC2CCCCC(=O)N2CCCN)c(NCCc2cccc(F)c2)n1 (stereo not drawn) [N-{[1-(3-aminopropyl)-7-oxoazaperhydroepin-2-yl]methyl}(6-(2-cyanophenyl)-2-{[2-(3-fluorophenyl)ethyl]amino}(3-pyridyl))carboxamide]
21,2430,O=C(NCc1cccnc1)c1ccc(-c2ccc(CO)cc2)nc1NCCc1ccccn1 [{6-[4-(hydroxymethyl)phenyl]-2-[(2-(2-pyridyl)ethyl)amino](3-pyridyl)}-N-(3-pyridylmethyl)carboxamide]
22,43700,O=C(NCC1CCNCC1)c1ccc(-c2ccccc2)nc1NCCc1ccccn1 [{6-phenyl-2-[(2-(2-pyridyl)ethyl)amino](3-pyridyl)}-N-(4-piperidylmethyl)carboxamide]
23,65,CNC(=O)CNC(=O)c1cc(F)c(-c2cn[nH]c2)nc1NCCc1cccc(F)c1 [2-[(5-fluoro-2-{[2-(3-fluorophenyl)ethyl]amino}-6-pyrazol-4-yl(3-pyridyl))carbonylamino]-N-methylacetamide]
24,4790,N#Cc1ccccc1-c1ccc(C(=O)NCC2CCN(CCCN)C2)c(NCCc2cccc(F)c2)n1 (stereo not drawn) [N-{[1-(3-aminopropyl)pyrrolidin-3-yl]methyl}(6-(2-cyanophenyl)-2-{[2-(3-fluorophenyl)ethyl]amino}(3-pyridyl))carboxamide]
25,151,O=C(NCc1cccnc1)c1ccc(-c2ccccc2)nc1NCCc1ccccc1 [{6-phenyl-2-[(2-phenylethyl)amino](3-pyridyl)}-N-(3-pyridylmethyl)carboxamide]
26,13,N#Cc1ccccc1-c1ccc(C(=O)NCc2cccnc2NCCN)c(NCCc2cccc(F)c2)n1 [N-({2-[(2-aminoethyl)amino](3-pyridyl)}methyl)(6-(2-cyanophenyl)-2-{[2-(3-fluorophenyl)ethyl]amino}(3-pyridyl))carboxamide]
27,5840,N#Cc1ccccc1-c1ccc(C(=O)NCC(=O)NCCCO)c(NCCc2cccc(F)c2)n1 [2-[(6-(2-cyanophenyl)-2-{[2-(3-fluorophenyl)ethyl]amino}(3-pyridyl))carbonylamino]-N-(3-hydroxypropyl)acetamide]
